Key:
Assay in all cases: relative viability (nuclei count vs DMSO), 5 days (fraction); higher = more cells survive
IPA-3 + Vorinostat = compound: C1=CC=C2C(=C1)C=CC(=C2SSC3=C(C=CC4=CC=CC=C43)O)O [IPA-3] + O=C(CCCCCCC(=O)Nc1ccccc1)NO [Vorinostat] (partner 1 µM)
Procedure, shortened: (§1)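 After 5 days of treatment, lung cancer cells in 1536-well plates were fixed and stained in a single step (final 0.05% Triton X-100, 1% formaldehyde, 1 ug/ml Hoechst) and their nuclei counted on 4× images. Treatment had been applied by pin tool the day after seeding as one drug alone or as a fixed anchor-drug dose with five library-drug doses (not always all listed) in √10 steps. Relative viability is the nuclei count of treated wells divided by that of vehicle wells, and values are medians of duplicate plates.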

Doramapimod + Vorinostat = compound: Cc1ccc(-n2nc(C(C)(C)C)cc2NC(=O)Nc2ccc(OCCN3CCOCC3)c3ccccc23)cc1 [Doramapimod] + O=C(CCCCCCC(=O)Nc1ccccc1)NO [Vorinostat] (partner 1 µM)
Procedure, shortened: as §1

IPA-3 + Navitoclax = compound: C1=CC=C2C(=C1)C=CC(=C2SSC3=C(C=CC4=CC=CC=C43)O)O [IPA-3] + CC1(C)CCC(c2ccc(Cl)cc2)=C(CN2CCN(c3ccc(C(=O)NS(=O)(=O)c4ccc(N[C@H](CCN5CCOCC5)CSc5ccccc5)c(S(=O)(=O)C(F)(F)F)c4)cc3)CC2)C1 [Navitoclax] (partner 0.5 µM)
Procedure, shortened: as §1

Row | Cell Line | relative viability (IPA-3 + Vorinostat; first compound 0.2 µM) | relative viability (IPA-3 + Vorinostat; first compound 0.6325 µM) | relative viability (IPA-3 + Vorinostat; first compound 2 µM) | relative viability (IPA-3 + Vorinostat; first compound 6.325 µM) | relative viability (IPA-3 + Vorinostat; first compound 20 µM) | relative viability (Doramapimod + Vorinostat; first compound 0.02 µM) | relative viability (Doramapimod + Vorinostat; first compound 0.06325 µM) | relative viability (Doramapimod + Vorinostat; first compound 0.2 µM) | relative viability (Doramapimod + Vorinostat; first compound 0.6325 µM) | relative viability (Doramapimod + Vorinostat; first compound 2 µM) | relative viability (IPA-3 + Navitoclax; first compound 0.2 µM) | relative viability (IPA-3 + Navitoclax; first compound 0.6325 µM) | relative viability (IPA-3 + Navitoclax; first compound 2 µM) | relative viability (IPA-3 + Navitoclax; first compound 6.325 µM) | relative viability (IPA-3 + Navitoclax; first compound 20 µM)
1 | EPLC-272H | 0.397 | 0.468 | 0.366 | 0.482 | 0.546 | 0.494 | 0.529 | 0.266 | 0.528 | 0.41 | 1.25 | 1.4 | 1.16 | 1.21 | 1.18
2 | H3255 | 1.05 | 0.759 | 0.801 | 0.791 | 0.967 | 0.864 | 0.884 | 0.818 | – | 0.84 | 0.543 | 0.523 | 0.446 | 0.566 | 0.603
3 | HARA | 0.48 | 0.509 | 0.421 | 0.653 | 0.447 | 0.532 | 0.496 | 0.547 | 0.506 | 0.486 | 1.18 | 1.09 | 1.12 | 1.01 | 1.2
4 | HCC-15 | 0.929 | 0.937 | 0.894 | 0.804 | 0.975 | 0.859 | 0.901 | 0.834 | 0.971 | 0.807 | 0.693 | 0.65 | 0.642 | 0.725 | 0.748
5 | HCC-44 | 1.03 | 1.03 | 1.04 | 1.07 | 0.986 | 1.17 | 1.18 | 1.14 | 1.14 | 1.2 | 1.11 | 0.969 | 0.977 | 1 | 0.942
6 | HCC-78 | 0.464 | 0.437 | 0.476 | 0.442 | 0.489 | 0.456 | 0.369 | 0.492 | 0.434 | 0.412 | 0.915 | 0.75 | 0.706 | 0.764 | 1.01
7 | HCC-366 | 0.518 | 0.287 | 0.339 | 0.341 | 0.318 | 0.329 | 0.421 | 0.44 | 0.42 | 0.32 | 1.18 | 1.01 | 1.19 | 1.03 | 1.18
8 | HCC-827 | 0.87 | 0.871 | 0.739 | 0.864 | 0.771 | 0.854 | 1.02 | 0.805 | 0.85 | 0.554 | 1.01 | 1.01 | 1 | 0.99 | 0.993
9 | HOP-62 | 0.72 | 0.556 | 0.597 | 0.698 | 0.717 | 0.653 | 0.714 | 0.721 | 0.606 | 0.623 | 1.08 | 0.9 | 1 | 0.943 | 1.34
10 | IA-LM | 1.06 | 0.922 | 0.925 | 0.891 | 1.15 | 0.988 | 0.868 | 0.86 | – | 0.745 | 0.793 | 0.683 | 0.765 | 0.601 | 0.392
11 | LC-2-ad | 0.72 | 0.681 | 0.788 | 0.726 | 0.76 | 0.753 | 0.748 | 0.742 | 0.745 | 0.764 | 0.526 | 0.334 | 0.444 | 0.454 | 0.685

From the supplement of paper PMC10307832
